From patent US20230348468A1, “1H-PYRAZOLO[4,3-d]PYRIMIDINE COMPOUNDS AS TOLL-LIKE RECEPTOR 7 (TLR7) AGONISTS” (BRISTOL-MYERS SQUIBB COMPANY, priority 2020, published 2023) come the findings set out here.

As a reminder, the EC50 is the concentration giving half of the maximal effect.

One assay deals with CD69. Kind of assay: Induction of CD69 in human whole blood. Format: cell-based. The following applies: heparinized human whole blood, 17 hrs at 37° C.; 100% set to 1 uM resiquimod; average where assay performed multiple times; read-out: hWB CD69 EC50. The procedure: The induction of Type I interferon (IFN) MX-1 genes and the B-cell activation marker CD69 are downstream events that occur upon activation of the TLR7 pathway. The following is a human whole blood assay that measures their induction in response to a TLR7 agonist.
Heparinized human whole blood was harvested from human subjects and treated with test TLR7 agonist compounds at 1 mM. The blood was diluted with RPMI 1640 media and Echo was used to predot 10 nL per well giving a final concentration of 1 uM (10 nL in 10 uL of blood). After mixing on a shaker for 30 sec, the plates were covered and placed in a 37° C. chamber for o/n=17 hrs. Fixing/lysis buffer was prepared (5×→1× in H2O, warm at 37° C.; Cat #BD 558049) and kept the perm buffer (on ice) for later use.
For surface markers staining (CD69): prepared surface Abs: 0.045 ul hCD14-FITC (ThermoFisher Cat #MHCD1401)+0.6 ul hCD19-ef450 (ThermoFisher Cat #48-0198-42)+1.5 ul hCD69-PE (cat #BD555531)+0.855 ul FACS buffer. Added 3 ul/well, spin 1000 rpm for 1 min and mixed on shaker for 30 sec, put on ice for 30 mins. Stop stimulation after 30 min with 70 uL of prewarmed 1× fix/lysis buffer and use Feliex mate to resuspend (15 times, change tips for each plate) and incubate at 37 C for 10 min.
Centrifuge at 2000 rpm for 5 min aspirate with HCS plate washer, mix on shaker for 30 sec and then wash with 70 uL in dPBS and pelleted 2×s (2000 rpm for 5 min) and 50 ul wash in FACS buffer pelleted 1×s (2000 rpm for 5 min). Mix on shaker for 30 sec. For Intracellular markers staining (MX-1): Add 50 ul of BD Perm buffer III and mix on shaker for 30 sec. Incubate on ice for 30 min (in the dark). Wash with 50 uL of FACS buffer 2× (spin @2300 rpm×5 min after perm) followed by mixing on shaker for 30 sec. Resuspended in 20 ul of FACS buffer containing MX1 antibody ( )(4812)-Alexa 647: Novus Biologicals #NBP2-43704AF647) 20 ul FACS bf+0.8 ul hIgG+0.04 ul MX-1. Spin 1000 rpm for 1 min, mix on shaker for 30 se and the samples were incubated at RT in the dark for 45 min followed by washing 2×FACS buffer (spin @2300 rpm×5 min after perm). Resuspend 20 ul (35 uL total per well) of FACS buffer and cover with foil and place in 4° C. to read the following day. Plates were read on iQuePlus. The results were loaded into toolset and […] curves are generated in curve master. The y-axis 100% is set to 1 uM of resiquimod.

For a further assay, the target named is T1, human TLR7 (Homo sapiens, UniProt Q9NYK1).
T1 construct: host or cells: HEK-Blue TLR7 cells (engineered human embryonic kidney cells)
T1 sequence (Q9NYK1 27-1049): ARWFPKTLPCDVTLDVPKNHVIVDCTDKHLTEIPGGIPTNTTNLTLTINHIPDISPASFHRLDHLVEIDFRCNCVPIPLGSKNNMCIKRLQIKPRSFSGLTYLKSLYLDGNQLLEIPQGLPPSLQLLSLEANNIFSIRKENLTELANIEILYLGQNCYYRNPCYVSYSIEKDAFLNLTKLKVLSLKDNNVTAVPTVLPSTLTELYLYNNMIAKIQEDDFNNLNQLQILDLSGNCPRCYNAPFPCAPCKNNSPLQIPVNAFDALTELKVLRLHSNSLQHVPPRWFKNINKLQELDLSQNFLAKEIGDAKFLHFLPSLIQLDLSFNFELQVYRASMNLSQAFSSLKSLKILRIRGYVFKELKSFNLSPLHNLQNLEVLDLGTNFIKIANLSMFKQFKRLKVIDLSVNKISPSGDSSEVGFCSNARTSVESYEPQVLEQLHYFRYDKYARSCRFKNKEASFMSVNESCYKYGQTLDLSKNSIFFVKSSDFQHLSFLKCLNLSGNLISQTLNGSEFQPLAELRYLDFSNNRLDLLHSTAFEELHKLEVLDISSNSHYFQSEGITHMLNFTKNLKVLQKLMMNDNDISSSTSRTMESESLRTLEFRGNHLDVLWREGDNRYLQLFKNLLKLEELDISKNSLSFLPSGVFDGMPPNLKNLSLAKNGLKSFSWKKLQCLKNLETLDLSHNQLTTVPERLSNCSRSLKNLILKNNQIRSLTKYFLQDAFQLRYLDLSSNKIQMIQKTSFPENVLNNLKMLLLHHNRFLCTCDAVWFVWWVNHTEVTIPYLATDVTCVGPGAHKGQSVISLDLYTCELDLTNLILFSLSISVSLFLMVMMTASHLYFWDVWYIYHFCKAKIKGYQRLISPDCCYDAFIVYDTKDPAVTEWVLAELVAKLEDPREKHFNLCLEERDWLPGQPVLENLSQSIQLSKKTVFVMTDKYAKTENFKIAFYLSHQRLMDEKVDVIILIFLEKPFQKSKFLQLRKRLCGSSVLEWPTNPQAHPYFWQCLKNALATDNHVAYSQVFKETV
Kind of assay: Human TLR7 agonist activity (reporter) assay. The class given is cell-based. The following applies: HEK-Blue TLR7 cells, SEAP reporter, 18 h treatment; average where assay performed multiple times; read-out: hTLR7 Agonism EC50. The procedure: This procedure describes a method for assaying human TLR7 (hTLR7) agonist activity of the compounds disclosed in this specification.
HEK-Blue™ TLR7 cells were added to each well of a 384-well tissue-culture plate (15,000 cells per well) and incubated 16-18 h at 37° C., 5% CO2. Compounds (100 nl) were dispensed into wells containing the HEK-Blue™ TLR cells and the treated cells were incubated at 37° C., 5% CO2. After 18 h treatment ten microliters of freshly-prepared Quanti-Blue” reagent (Invivogen) was added to each well, incubated for 30 min (37° C., 5% CO2) and SEAP levels measured using an Envision plate reader (OD=620 nm). The half maximal effective concentration values (EC50; compound concentration which induced a response halfway between the assay baseline and maximum) were calculated.

Turning to `CCCCNc1nc(N)nc2cnn(Cc3ccc(C4(O)CCC4)cc3OC)c12` [Compound 117, 1-(4-{[5-amino-7-(butylamino)-1H-pyrazolo[4,3-d]pyrimidin-1-yl]methyl}-3-methoxyphenyl)cyclobutan-1-ol], the EC50 in the assay on CD69 was determined as 804 nM; on human TLR7 it was 25.9 nM.
The matching figures for `CCC[C@@H](CCO)Nc1nc(N)nc2cnn(Cc3cc(C(C)(C)N)ccc3OC)c12` [Compound 104, (S)-3-((5-Amino-1-(5-(2-aminopropan-2-yl)-2-methoxybenzyl)-1H-pyrazolo[4,3-d]pyrimidin-7-yl)amino)hexan-1-ol]: 12.7 nM and 34.5 nM.
In the case of `CCC[C@@H](CCO)Nc1nc(N)nc2cnn(Cc3nc(C(C)(C)N)ccc3OC)c12` [Compound 119, (3S)-3-[(5-amino-1-{[6-(2-aminopropan-2-yl)-3-methoxypyridin-2-yl]methyl}-1H-pyrazolo[4,3-d]pyrimidin-7-yl)amino]hexan-1-ol], the EC50 on human TLR7 was determined as 4950 nM.
With `CCCCNc1nc(N)nc2cnn(Cc3ccc(C4(O)CC4)cc3OC)c12` [Compound 118, 1-(4-{[5-amino-7-(butylamino)-1H-pyrazolo[4,3-d]pyrimidin-1-yl]methyl}-3-methoxyphenyl)cyclopropan-1-ol], the EC50 is 276 nM in the assay on CD69 and 257 nM at human TLR7.
For `COc1cc(C(C)(C)N)ccc1Cn1ncc2nc(N)nc(NCc3cc(C)on3)c21` [Compound 103, 1-(4-(2-Aminopropan-2-yl)-2-methoxybenzyl)-N7-((5-methylisoxazol-3-yl)methyl)-1H-pyrazolo[4,3-d]pyrimidine-5,7-diamine], on human TLR7, the 50% effective concentration (EC50) amounted to 202 nM.
On the same count and under the same terms, with `CCCCNc1nc(N)nc2cnn(Cc3ccc(C(C)(C)O)cc3OC)c12` [Compound 110, 2-(4-{[5-amino-7-(butylamino)-1H-pyrazolo[4,3-d]pyrimidin-1-yl]methyl}-3-methoxyphenyl)propan-2-ol] the figure was 71.1 nM.
On the same count and under the same terms, with `CCCCNc1nc(N)nc2cnn(Cc3ccc(C(C)(O)CC)cc3OC)c12` (stereo not shown) [Compound 112, 2-(4-{[5-amino-7-(butylamino)-1H-pyrazolo[4,3-d]pyrimidin-1-yl]methyl}-3-methoxyphenyl)butan-2-ol] the figure was 95.9 nM.
For `CCC[C@@H](CCO)Nc1nc(N)nc2cnn(Cc3ccc(C(C)(C)N)cc3OC)c12` [Compound 102, (S)-3-((5-Amino-1-(4-(2-aminopropan-2-yl)-2-methoxybenzyl)-1H-pyrazolo[4,3-d]pyrimidin-7-yl)amino)hexan-1-ol], the EC50 in the assay with CD69 came to 1.8 nM; on human TLR7, 7.2 nM.
The matching figures for `CCC[C@@H](CCO)Nc1nc(N)nc2cnn(Cc3ccc(C(C)(C)O)cc3OC)c12` [Compound 109, (3S)-3-[(5-amino-1-{[4-(2-hydroxypropan-2-yl)-2-methoxyphenyl]methyl}-1H-pyrazolo[4,3-d]pyrimidin-7-yl)amino]hexan-1-ol]: 3.5 nM and 4.6 nM.
`CCC[C@@H](CCO)Nc1nc(N)nc2cnn(Cc3ccc(C4(N)COC4)cc3OC)c12` [Compound 108, (S)-3-((5-amino-1-(4-(3-aminooxetan-3-yl)-2-methoxybenzyl)-1H-pyrazolo[4,3-d]pyrimidin-7-yl)amino)hexan-1-ol]: the EC50 with CD69 was found to be 3.3 nM; on human TLR7 it was 43.4 nM.
`CCCCNc1nc(N)nc2cnn(Cc3ccc(C4(O)CNC4)cc3OC)c12` [Compound 116, 3-(4-{[5-amino-7-(butylamino)-1H-pyrazolo[4,3-d]pyrimidin-1-yl]methyl}-3-methoxyphenyl)-azetidin-3-ol]: the EC50 on human TLR7 turned out to be 786 nM.
On the same count and under the same terms, the result for `CCC[C@@H](CCO)Nc1nc(N)nc2cnn(Cc3cnc(C(C)(C)N)cc3OC)c12` [Compound 120, (3S)-3-[(5-amino-1-{[6-(2-aminopropan-2-yl)-4-methoxypyridin-3-yl]methyl}-1H-pyrazolo[4,3-d]pyrimidin-7-yl)amino]hexan-1-ol] reads 48.3 nM.
As for `CCCCNc1nc(N)nc2cnn(Cc3cc(C(C)(C)N)ccc3OC)c12` [Compound 105, 1-(5-(2-Aminopropan-2-yl)-2-methoxybenzyl)-N7-butyl-1H-pyrazolo[4,3-d]pyrimidine-5,7-diamine], the EC50 in the assay on CD69 amounted to 50.6 nM.
Regarding `CCCCNc1nc(N)nc2cnn(Cc3ccc(C(C)(O)CCC)cc3OC)c12` (stereo not shown) [Compound 113, 2-(4-{[5-amino-7-(butylamino)-1H-pyrazolo[4,3-d]pyrimidin-1-yl]methyl}-3-methoxyphenyl)pentan-2-ol], the EC50 on human TLR7 worked out at 256 nM.
Turning to `CCCCNc1nc(N)nc2cnn(Cc3ccc(C(O)(CC)CC)cc3OC)c12` [Compound 111, 3-(4-{[5-amino-7-(butylamino)-1H-pyrazolo[4,3-d]pyrimidin-1-yl]methyl}-3-methoxyphenyl)pentan-3-ol], on human TLR7, the EC50 was 45.9 nM.
Take `CCCCNc1nc(N)nc2cnn(Cc3ccc(C(C)(C)N)cc3OC)c12` [Compound 101, 1-(4-(2-Aminopropan-2-yl)-2-methoxybenzyl)-N7-butyl-1H-pyrazolo[4,3-d]pyrimidine-5,7-diamine]: the EC50 with CD69 was 11.6 nM; at human TLR7, 76.6 nM.
In the same order, the values of `CCCCNc1nc(N)nc2cnn(Cc3ccc(C(C)(O)C(F)(F)F)cc3OC)c12` (stereo not shown) [Compound 115, 2-(4-{[5-amino-7-(butylamino)-1H-pyrazolo[4,3-d]pyrimidin-1-yl]methyl}-3-methoxyphenyl)-1,1,1-trifluoropropan-2-ol] are 340 nM and 146 nM.
In the same order, the values of `CCCCNc1nc(N)nc2cnn(Cc3ccc(C4(N)COC4)cc3OC)c12` [Compound 107, 1-(4-(3-aminooxetan-3-yl)-2-methoxybenzyl)-N7-butyl-1H-pyrazolo-[4,3-d]pyrimidine-5,7-diamine] are 42.6 nM and 247 nM.
As to `CCCCNc1nc(N)nc2cnn(Cc3ccc(C4(O)COC4)cc3OC)c12` [Compound 114, 3-(4-{[5-amino-7-(butylamino)-1H-pyrazolo[4,3-d]pyrimidin-1-yl]methyl}-3-methoxyphenyl)oxetan-3-ol], the EC50 on human TLR7 is 410 nM.
